From publication doi:10.1101/2023.08.21.552681v1 (biorxiv, 2023)
Read-outs that look alike come from different tables or passages of the source.

Legend:
ctdWDR91 [1] = molecular target: T1, ctdWDR91 (Homo sapiens, UniProt A4D1P6); experiment: biochemical
T1 sequence (A4D1P6 392-747): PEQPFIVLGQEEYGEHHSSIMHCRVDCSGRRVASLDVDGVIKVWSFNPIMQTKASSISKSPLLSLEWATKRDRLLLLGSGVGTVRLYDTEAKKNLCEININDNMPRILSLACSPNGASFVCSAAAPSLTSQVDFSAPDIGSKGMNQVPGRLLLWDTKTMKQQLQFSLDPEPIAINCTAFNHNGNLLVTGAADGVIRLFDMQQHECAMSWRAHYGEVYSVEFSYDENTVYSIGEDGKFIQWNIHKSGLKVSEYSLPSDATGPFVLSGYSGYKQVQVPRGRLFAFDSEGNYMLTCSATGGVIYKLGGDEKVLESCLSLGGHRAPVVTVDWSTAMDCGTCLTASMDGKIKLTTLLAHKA

ctdWDR91 [2] = molecular target: T1, ctdWDR91; experiment: biochemical; remark: listed apart in the source

SMILES | Kd (ctdWDR91 [1]) [µM] | Kd (ctdWDR91 [2]) [µM]
O=C(NCC1CCN(c2ccc(F)cc2)C1)N1CC(O)(c2ccc(Cl)cc2)C1 (stereo not shown) [DRGG002002a] | > 45 | –
O=C(NCC1CCN(c2ccc(Cl)cc2)C1)c1ccc(C(=O)NC2CC2)cc1 (stereo not shown) [DRGG001936a] | > 45 | –
O=C(N[C@@H]1CCO[C@H]1c1ccc(Cl)cc1)c1ccc(N2CCC(O)C2)cc1 (stereo partly shown) [DRGG002001a] | > 45 | –
O=C(CNC(=O)c1ccc(O)cc1)NCC1CCN(c2ccc(Cl)cc2)C1 (stereo not shown) [DRGG001951a] | > 45 | –
O=C(NCC1CCN(c2ccc(F)cc2)C1)NC1(c2ccc(Cl)cc2)CC1 (stereo not shown) [DRGG002015a] | > 45 | –
Cc1ccc(N2CCC(NC(=O)c3ccc(Cl)cc3)C2)cc1 (stereo not shown) [DRGG001953a] | > 45 | –
CC1CCN(c2ccc(C(=O)NC3(Cc4ccc(F)cc4)CC3)cc2)C1 (stereo not shown) [DRGG002014a] | > 45 | –
O=C(c1ccc(N2CCC(O)C2)cc1)N1Cc2ccc(Cl)cc2C1 (stereo not shown) [DRGG001955a] | > 45 | –
O=C(NC1(c2ccc(Cl)cc2)COC1)C1CCN(c2ccccc2)C1 (stereo not shown) [DRGG001991a] | > 45 | –
CC1(c2ccc(C(=O)NC3CCN(c4ccc(F)cc4)C3)cc2)CC1 (stereo not shown) [DRGG001994a] | > 45 | –
O=C(NCC1CCN(c2ccc(F)cc2)C1)c1ccc(Cl)cc1 (stereo not shown) [DRGG001960a] | > 45 | –
O=C(CNC(=O)c1ccc(F)cc1)NC1CCN(c2ccc(Cl)cc2)C1 (stereo not shown) [DRGG001962a] | > 45 | –
C=CC(=O)Nc1ccc(CC(=O)NC2(c3ccccc3)COC2)cc1 [MRTR046653a] | > 45 | –
Cn1ccc(C(=O)Nc2ccc(N3CCCCC3)c3ccncc23)cc1=O [MRGG044838a] | – | > 45
O=C1Cc2ccc(C(=O)NC3Cc4ccccc4C3O)cc2N1 (stereo not shown) [MRGG044800a] | – | > 45
NC(=O)NC(CC(=O)Nc1ccc(N2CCCC2)cc1)c1ccc(Cl)cc1 (stereo not shown) [XSGG048242e] | – | > 45
c1ccc(CN2CCC3(CCN(C4CC4)C3)C2)cc1 (stereo not shown) [MRGG045337a] | – | > 45
CS(=O)(=O)N1CCC(CN(Cc2cccc(F)c2)C2CC2)C1 (stereo not shown) [MRGG045308a] | – | > 45
CN(C1CCN(C2CC2)C1)S(=O)(=O)c1cccc2ccoc12 (stereo not shown) [MRGG045312a] | – | > 45
Cc1ccc(C(=O)NC(c2ccc(Cl)cc2)C2CC2)cc1[N+](=O)[O-] (stereo not shown) [MRGG044833a] | – | > 45
COc1cccc(N2CCC(CNC(=O)c3cccc(F)c3)C2)c1 (stereo not shown) [MRGG044811a] | – | > 45
CC1CN(C2CC2)CC1NCc1ccccc1-n1ccnc1 (stereo not shown) [MRGG044802a] | – | > 45
O=C(NCc1ccc2nonc2c1)c1cn2ccsc2n1 [MRGG044782a] | – | > 45
N#Cc1cc(C(F)(F)F)cc(N2CCCN(C3CC3)CC2)n1 [MRGG045289a] | – | > 45
O=[N+]([O-])c1ccc(N2CCC(CNc3ccccn3)C2)c2ccncc12 (stereo not shown) [MRGG044831a] | – | > 45
Cc1ccccc1N1CCC(CNC(=O)Cc2ccc(C(F)(F)F)cc2)C1 (stereo not shown) [MRGG044786a] | – | > 45
NC(=O)C1(NC(=O)c2ccc3cccnc3c2)Cc2ccccc2C1 [MRGG045265a] | – | > 45

SMILES | Kd (ctdWDR91 [1]) [µM] | Kd (ctdWDR91 [2]) [µM]
CN(C(=O)Cc1coc2ccccc12)C1CCN(C(=O)OC(C)(C)C)C1 (stereo not shown) [MRGG045302a] | – | > 45
O=C(CSc1nnc(-c2ccc(Cl)cc2)o1)NCc1ccc(O)c(O)c1 [MRGG045283a] | – | > 45
CNC(=O)c1ccc(NC2CC3CCC(C2)N3C)nc1 (stereo not shown) [MRGG045318a] | – | > 45
CN(CCc1ccccc1F)C(=O)c1cnc2sccn12 [MRGG045268a] | – | > 45
CC1CN(C2CC2)CC1NC(=O)c1cc2cc(Br)ccc2o1 (stereo not shown) [MRGG044827a] | – | > 45
CN1C(=O)CC(C(=O)NCc2ccc(O)c(O)c2)C1c1ccc(Cl)c(Cl)c1 (stereo not shown) [MRGG045316a] | – | > 45
Cc1nn2cc(C(=O)N(C)CCc3cccc(C#N)c3)nc2s1 [MRGG045278a] | – | > 45
O=C(NCc1ccc(N2CCCC2)cc1)c1ccc(F)cc1 [XSGG119722b] | – | > 45
CN1CC(N(C)C(=O)CCc2ccc3cc(O)c(O)cc3c2)C1 [MRGG045336a] | – | > 45
CN(CCCc1ccccc1)C(=O)c1cn2ccnc2s1 [MRGG045270a] | – | > 45
N#Cc1ccc2c(c1)CCCCC2NCC1CCN(C2CC2)C1 (stereo not shown) [MRGG045300a] | – | > 45
O=C(NC1CC2(CCCC2)Oc2ccccc21)c1cnc2ccccn2c1=O (stereo not shown) [MRGG044783a] | – | > 45
C[C@@H]1CN(S(=O)(=O)c2ccc3ncsc3c2)[C@@H](C)CN1C [MRGG045304a] | – | > 45
CN(Cc1ccc(Cl)c(Cl)c1)C(=O)COC(=O)C=Cc1ccc(O)c(O)c1 [MRGG045262a] | – | > 45
CN(C)C1(CNC(=O)c2ccc3oc(=O)[nH]c3c2)Cc2ccccc2C1 [MRGG044797a] | – | > 45
O=C(c1ccccc1)N1CCC(CN(C2CC2)C2CC2)C1 (stereo not shown) [MRGG045320a] | – | > 45
Cc1cc(N2CCC(COC(=O)C3COc4ccccc43)C2)ccc1F (stereo not shown) [MRGG045298a] | – | > 45
CC(NC(=O)CN(C)C1CCN(C2CC2)C1)c1ccc(Br)cc1 (stereo not shown) [MRGG045280a] | – | > 45
c1ccc2c(c1)OCCCC2NC1CCN(C2CC2)C1 (stereo not shown) [MRGG044835a] | – | > 45
O=C(NC(CCO)c1ccc(Cl)cc1)c1ccc(CN2CCCC2=O)cc1 (stereo not shown) [MRGG045272a] | – | > 45
Cc1ccc(C(=O)NC2CC2)cc1NCc1cc(C#N)cc(C#N)c1 [MRGG045299a] | – | > 45
Cc1ccc(N)cc1C(=O)N1C2C=C(c3ccccc3)CC1CC2 (stereo not shown) [MRGG044818aAD] | – | > 45
O=C(NCC1CCN(C2CC2)C1)c1ccc(Cl)cc1 (stereo not shown) [MRGG044816a] | – | > 45
Cc1cc(N2CCN(C(=O)c3cc(F)c(F)cc3[N+](=O)[O-])CC2)c(F)cc1[N+](=O)[O-] [MRGG044777a] | – | > 45
CC1CN(C2CC2)CC1NC1CCN(C2CC2)CC1 (stereo not shown) [MRGG045338a] | – | > 45
CC1CN(C2CC2)CC1NC(=O)CCCCc1c[nH]c2ccccc12 (stereo not shown) [MRGG045292a] | – | > 45
O=C(c1snc(O)c1Cl)N1CCC2(CCc3ccccc3O2)C1 (stereo not shown) [MRGG044808a] | – | > 45

SMILES | Kd (ctdWDR91 [1]) [µM] | Kd (ctdWDR91 [2]) [µM]
CNC(=O)c1cc(C)nc(N2CCC3(CC2)CN(C)c2ccccc23)n1 [MRGG045287a] | – | > 45
O=C1CC(c2nccs2)NC(=O)N1CC1CCN(c2ccc(Cl)cc2)C1 (stereo not shown) [MRGG045332a] | – | > 45
CCOc1ccc2c(c1)C(NC(=O)c1cn3ccnc3s1)CCO2 (stereo not shown) [MRGG044834a] | – | > 45
O=C(NC(CCO)c1ccc(Cl)c(Cl)c1)c1ccc2c(c1)NC(=O)C1CCCN21 (stereo not shown) [MRGG045335a] | – | > 45
O=C(Cc1ccc(O)c(O)c1)NC(CC1CC1)c1ccc(Cl)cc1 (stereo not shown) [MRGG045306a] | – | > 45
CN(Cc1ccccc1-n1cccc1)C(=O)C1CCCN1C1CC1 (stereo not shown) [MRGG045309a] | – | > 45
CC(C)(C)OC(=O)N1CCCC1C1CCN(C2CC2)C1 (stereo not shown) [MRGG045334a] | – | > 45
CC1CC(NC(=O)c2c[nH]c3cccc(Cl)c23)CN1C1CC1 (stereo not shown) [MRGG045323a] | – | > 45
CN1CC(N(C)C(=O)c2cc(-n3cccc3)ccn2)C1 [MRGG045326a] | – | > 45
OC1CN(C2CC2)CC1N1CCc2ccccc2C1 (stereo not shown) [MRGG045310a] | – | > 45
CC(NC(=O)c1ccc(CNC(N)=O)cc1)c1ccc(Cl)c(Cl)c1 (stereo not shown) [MRGG044836a] | – | > 45
COc1ccnc(N(C)C(=O)CCn2cccc2)n1 [MRGG045324a] | – | > 45
O=C(NC1CCN(c2cccc(Cl)c2)C1)c1cccc2c1OCO2 (stereo not shown) [MRGG044807a] | – | > 45
CC(NC(=O)CN(C)Cc1ccc(Cl)c(Cl)c1)c1ccccc1 (stereo not shown) [MRGG044839a] | – | > 45
NC(=O)[C@]12CCOC[C@H]1CN(C(=O)c1cccc(N3CCCC3)c1)C2 [MRGG044792a] | – | > 45
CC(C)(C)OC(=O)N1C[C@@H](Cc2ccccc2)[C@H](O)C1 [MRGG044809a] | – | > 45
Fc1ccc(N2CCC(CNc3ncnc4ccncc34)C2)cc1F (stereo not shown) [MRGG044795a] | – | > 45
CCC(NC(=O)c1ccc(S(=O)(=O)NC2CC2)cc1)c1ccc(Br)cc1 (stereo not shown) [MRGG044824a] | – | > 45
Cc1nn(C)cc1C1=NOC(C(=O)N[C@H](C)c2ccc(Br)cc2)C1 (stereo partly shown) [MRGG045282a] | – | > 45
CN(C)c1nc2ccc(NCc3cc4c(cc3O)OCO4)cc2o1 [MRGG044799a] | – | > 45
O=C1NCC2(CC2)C(=O)N1CC1CCN(c2cccc(Br)c2)C1 (stereo not shown) [MRGG045328a] | – | > 45
Cc1ccc(C(=O)N(C)C)cc1-c1cccc(N2CCCC2)c1 [MRGG045315a] | – | > 45
COc1ccc(CC(=O)N(C)Cc2cccc(N3CCCC3)c2)cc1[N+](=O)[O-] [MRGG045329a] | – | > 45
CC1c2cccn2CCN1C(=O)c1cc(Br)cc(N2CCCC2)c1 (stereo not shown) [MRGG044826a] | – | > 45
CN(CCc1ccccc1)C(=O)c1nc2sccn2c1CN1CC[C@H](O)C1 [MRGG044785a] | – | > 45
